Laboratory results: US20070265170A1, “DETECTION, PREVENTION AND TREATMENT OF OVARIAN CANCER” (priority 2006, published 2007)

B1: Ceruloplasmine (protein, UniProt P00450 20-1065, looked up)
Ceruloplasmin: KEKHYYIGIIETTWDYASDHGEKKLISVDTEHSNIYLQNGPDRIGRLYKKALYLQYTDETFRTTIEKPVWLGFLGPIIKAETGDKVYVHLKNLASRPYTFHSHGITYYKEHEGAIYPDNTTDFQRADDKVYPGEQYTYMLLATEEQSPGEGDGNCVTRIYHSHIDAPKDIASGLIGPLIICKKDSLDKEKEKHIDREFVVMFSVVDENFSWYLEDNIKTYCSEPEKVDKDNEDFQESNRMYSVNGYTFGSLPGLSMCAEDRVKWYLFGMGNEVDVHAAFFHGQALTNKNYRIDTINLFPATLFDAYMVAQNPGEWMLSCQNLNHLKAGLQAFFQVQECNKSSSKDNIRGKHVRHYYIAAEEIIWNYAPSGIDIFTKENLTAPGSDSAVFFEQGTTRIGGSYKKLVYREYTDASFTNRKERGPEEEHLGILGPVIWAEVGDTIRVTFHNKGAYPLSIEPIGVRFNKNNEGTYYSPNYNPQSRSVPPSASHVAPTETFTYEWTVPKEVGPTNADPVCLAKMYYSAVEPTKDIFTGLIGPMKICKKGSLHANGRQKDVDKEFYLFPTVFDENESLLLEDNIRMFTTAPDQVDKEDEDFQESNKMHSMNGFMYGNQPGLTMCKGDSVVWYLFSAGNEADVHGIYFSGNTYLWRGERRDTANLFPQTSLTLHMWPDTEGTFNVECLTTDHYTGGMKQKYTVNQCRRQSEDSTFYLGERTYYIAAVEVEWDYSPQREWEKELHHLQEQNVSNAFLDKGEFYIGSKYKKVVYRQYTDSTFRVPVERKAEEEHLGILGPQLHADVGDKVKIIFKNMATRPYSIHAHGVQTESSTVTPTLPGETLTYVWKIPERSGAGTEDSACIPWAYYSTVDQVKDLYSGLIGPLIVCRRPYLKVFNPRRKLEFALLFLVFDENESWYLDDNIKTYSDHPEKVNKDDEEFIESNKMHAINGRMFGNLQGLTMHVGDEVNWYLMGMGNEIDLHTVHFHGHSFQYKHRGVYSSDVFDIFPGTYQTLEMFPRTPGIWLLHCHVTDHIHAGMETTYTVLQNEDTKSG

What was measured:
[1] = test system: anti-carbohydrate antibodies in sera of metastatic breast cancer patients; experiment: Glycan array with sera of metastatic breast cancer patients; type: binding, human; settings: sera diluted 1:25; for binding by antibodies from metastatic breast cancer patients: 9 MBC patients; for level of serum antibodies against the glycan in MBC patients compared to healthy individuals: relative fluorescence, FIG. 8-9
Protocol: Individual (not pooled) sera were collected from 9 patients who were diagnosed with metastatic breast cancer (MBC). Blood samples were collected before treatment, so that therapeutic intervention would not interfere with patient immune responses. One patient with breast cancer but with good prognosis (IDC, Stage 1) was also included in the study. As control, or “healthy” sera, sera from ten healthy individuals, 5 female and 5 male, with no known malignancies was collected.
Sera were diluted 1:25 with PBS containing 3% BSA, and placed on the glycan array slide in humidified chamber at room temperature for 90 min. The glycan array slide was then rinsed gently with PBS/0.05% Tween, incubated with biotinylated goat antibody against human IgG, IgM and IgA, rinsed in PBS/0.05% Tween, and incubated with streptavidin-Alexa488 fluorescent dye. Following rinses in PBS/0.05% Tween and H2O, glycan array slides were dried and scanned using the commercial DNA array scanner. […] Signal to background was typically greater 50:1 and no background subtractions were performed. Data were plotted using MS Excel software.

β3GlcNAcT = β3GlcNAcT acceptor specificity; settings: acceptor substrate; lactose (4) = 100%
[2] = test system: Human anti-HIV 2G12 monoclonal antibody; experiment: Glycan array binding of 2G12; settings: 2G12 30 μg/mL pre-complexed with goat anti-human-IgG-FITC
Text: Glycan array fabrication.
Glycan Binding Protein binding assay.
Image acquisition and signal processing. […] Data were plotted using MS Excel software.

chicken ST6GalNAc-I = target: T1, chicken ST6GalNAc-I (Gallus gallus, UniProt Q92183); experiment: chST6GalNAc-I activity on small acceptor molecules; type: biochemical; settings: α-D-galacto derivatives as acceptors
T1 construct: made in house; host or cells: insect cells
Text: The inventors have previously reported the cloning, expression, and characterization of chicken ST6GalNAc-I and its use in preparative synthesis of the O-linked sialoside antigens, STn-, α(2-6)SiaT-, α(2-3)SiaT- and Di-SiaT-antigen. Blixt, O.; Allin, K.; Pereira, L.; Datta, A. and Paulson, J. C., J. Am. Chem. Soc. 2002, 124, 5739-5746. Briefly, the recombinant enzyme was expressed in insect cells and purified by CDP-sepharose affinity chromatography to generate approximately 10 U/L of cell culture.

T1 sequence (Q92183 whole entry): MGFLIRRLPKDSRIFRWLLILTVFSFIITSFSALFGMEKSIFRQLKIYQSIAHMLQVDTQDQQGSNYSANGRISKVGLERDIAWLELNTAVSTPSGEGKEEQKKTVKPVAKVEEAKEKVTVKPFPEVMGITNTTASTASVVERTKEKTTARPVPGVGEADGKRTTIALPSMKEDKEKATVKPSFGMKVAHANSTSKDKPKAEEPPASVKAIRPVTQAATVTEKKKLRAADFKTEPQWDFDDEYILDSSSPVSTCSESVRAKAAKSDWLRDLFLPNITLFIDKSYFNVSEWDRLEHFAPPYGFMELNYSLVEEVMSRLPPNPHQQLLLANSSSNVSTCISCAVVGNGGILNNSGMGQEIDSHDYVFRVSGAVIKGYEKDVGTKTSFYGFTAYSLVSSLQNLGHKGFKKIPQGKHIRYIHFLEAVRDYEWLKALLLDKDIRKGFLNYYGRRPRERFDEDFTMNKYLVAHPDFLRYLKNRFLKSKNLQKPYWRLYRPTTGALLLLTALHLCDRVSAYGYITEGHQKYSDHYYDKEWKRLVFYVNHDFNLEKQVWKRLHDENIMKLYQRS

Row | Molecule | binding by antibodies from metastatic breast cancer patients [1] | level of serum antibodies against the glycan in MBC patients compared to healthy individuals [1] | also measured
1 | Ab3ANb4[NNa3]Ab4Gb#sp1 GM1 [Glycan 58] | bind | higher than in the healthy individuals | –
2 | Fa2Ab3Anb3Aa4Ab4G#sp3 Globo-H [Glycan 97] | bind | higher than in the healthy individuals | –
3 | OCC1O[C@@H](O)C(O)[C@@H](O)[C@@H]1O[C@@H]1OC(CO)[C@H](O)[C@H](O)C1O (stereo partly drawn) [Compound 4] | – | – | Relative enzyme activity (%) β(1-3)GlcNAcT-activity (β3GlcNAcT): 100%
4 | NJa6ANa#sp2 Neu5Gc6GalNAc (STn) [Glycan 155] | bind | – | –
5 | NNa6ANa#sp2 6SiaβGalNAc [Glycan 190] | bind | significantly higher levels | –
6 | GNb3Ab4Gb#sp1 LNT-2 [Glycan 123] | bind | higher than in the healthy individuals | –
7 | Man-9#aa Man9-aminoacid [Glycan 145] | – | – | 2G12 binding to arrayed glycan [2]: smaller level of binding
8 | CC(=O)N[C@H]1C(O)O[C@H](CO)[C@H](O)[C@@H]1O (stereo partly drawn) [D-GalNAc] | – | – | chST6GalNac-I Activity, cpm (chicken ST6GalNAc-I): 0 cpm; chST6GalNac-I Activity, nmol/mg × min^−1 (chicken ST6GalNAc-I): 0.00 nmol/mg × min^−1
9 | B1 | bind | significantly higher levels | –
